Series [1] concerns Clostridium difficile strains. Kind of series: Susceptibility testing (MIC) by two-fold serial agar dilution, Wilkins-Chalgren Anaerobe agar, anaerobic. The series is classed as cell-based. The protocol:
Susceptibility testing for Clostridium difficile strains was performed by two-fold serial antibiotic dilutions in Wilkins-Chalgren Anaerobe agar under anaerobic conditions. Vancomycin was included as a comparator drug. C. difficile cultures were inoculated onto pre-reduced Braziers (C.C.E.Y.) agar plates and grown at 37° C. for 48 hours under anaerobic conditions. Two to three colonies of the 48 hours cultures were inoculated into 5 ml of pre-reduced Schaedlers Broth and grown at 37° C. for 24 hours under anaerobic conditions. This culture was diluted with pre-reduced 0.9% NaCl to achieve the turbidity of the 0.5 McFarland standard and applied to the drug containing plates at a final inoculum of 10^5 cfu/spot. Drug-free growth control plates were included. The plates were incubated in the anaerobic chamber at 37° C. for 48 hours and examined for growth.
(Agar dilution tests growth on a series of plates holding different concentrations.)

A further series deals with C. difficile strain 4013. Description: Hamster model of C. difficile associated cecitis (clindamycin induced). The format is in vivo. The note with it: three times daily at 10 mg/kg/day, 5-day dosing period, groups of 6. The protocol:
The in vivo efficacy of the compounds of the invention in the treatment of C. difficile infections was evaluated in the standard animal model for CDAD, clindamycin induced cecitis in the hamster.
Groups of 6 animals were dosed with approximately 10^7 cells of C. difficile strain 4013 and 24 hours later with a subcutaneous dose of 10 mg/kg clindamycin phosphate. After a further 24 hours, the groups were then treated either with vehicle, vancomycin or with the compound of Example 1 three times daily at 10 mg/kg/day.

Series [2] in a line: Stability to enzymatic digestion in simulated intestinal fluid (SIF). The series is classed as in vitro ADME. The note with it: 37° C., HPLC quantification (FIG. 1). The protocol: Nisin and the compound of Example 1 were tested for their susceptibility towards enzymatic digestion in the intestine using a simulated intestinal fluid (SIF). The SIF was based on the standard USP solutions for simulated intestinal fluids and its activity was confirmed against Bovine Serum Albumin (Hilger et al, Clin. Exp. Immunol. 2001, 123, 387-94). The compounds were incubated in SIF at 37° C. and their concentrations quantified by analytical HPLC (UV detection at 210 nm using the conditions outline in Table 1).

A short description of series [3]: 7-day toxicity experiment in a rat model. The format is in vivo. The protocol:
The compound of Example 1 was tested in a 7-day toxicity experiment in a rat model. One study used 50 mg/kg/day of material administered intravenously for 7 days. The other study used 200 mg/kg/day of material administered orally for 7 days.

A short description of series [4]: Tolerability in the Syrian hamster. The format is in vivo. The following applies: 50 mg/kg/day orally.
The mark [5] stands for this setting: 50 mg/kg/day intravenously for 7 days.
Where [6] appears, read: 200 mg/kg/day orally for 7 days.

Values joined by “and” are separate entries in the source; they are usually repeats but may differ in a detail not shown here. Identical values can stand only once.

Usually MIC stands for the lowest concentration that inhibits growth of the organism. High values mean a less susceptible organism, low ones a more susceptible organism.

Consider “Deoxyactagardine B (12-amino-1-dodecylamide monocarboxamide) [Example 8]”, for which the minimum inhibitory concentration (MIC) was 1, 1 μg/ml in series [1] (C. diff strain 027Can); 2, 2 μg/ml in series [1] (C. diff strain 027SM); 0.5, 0.5 μg/ml and 1, 1 μg/ml in series [1] (C. diff strain 630, listed as Eg8); 1, 1 μg/ml and 2, 2 μg/ml in series [1] (C. diff strain 19126, listed as Eg8); 1, 1 μg/ml and 1 μg/ml and 2 μg/ml in series [1] (C. diff strain 37779, listed as Eg8); 2 µg/mL and 1 µg/mL in series [1] (C. diff strain B32, listed as Eg8). The minimal inhibitory concentration (MIC) is 2, 2 μg/ml in series [1] (C. diff strain E16); 2, 2 μg/ml in series [1] (C. diff strain E101); 2 µg/mL and 1 µg/mL in series [1] (C. diff strain P24, listed as Eg8); 2, 2 μg/ml in series [1] (C. diff strain P62).
`CN[C@H](CC(C)C)C(=O)N[C@H]1C(=O)N[C@@H](CC(N)=O)C(=O)N[C@H]2C(=O)N[C@H]3C(=O)N[C@H](C(=O)N[C@H](C(=O)O)c4cc(O)cc(O)c4-c4cc3ccc4O)[C@H](O)c3ccc(c(Cl)c3)Oc3cc2cc(c3O[C@@H]2O[C@H](CO)[C@@H](O)[C@H](O)[C@H]2O[C@H]2C[C@](C)(N)[C@H](O)[C@H](C)O2)Oc2ccc(cc2Cl)[C@H]1O` [vancomycin, reference compound]: in the series with C. difficile strain 4013, the survival entry is recorded as “survived for the duration of the entire 5-day dosing period”.
On to `CCC(C)[C@@H]1NC(=O)[C@@H]2NC(=O)[C@H](CC(C)C)NC(=O)[C@H](NC(=O)C3CSC[C@H](N)C(=O)N[C@@H](CO)C(=O)NCC(=O)N[C@@H](Cc4c[nH]c5ccccc45)C(=O)N[C@@H](C(C)C)C(=O)N3)[C@H](C)SC[C@H](NC(=O)[C@H](CCC(=O)O)NC1=O)C(=O)NCC(=O)N[C@@H]1C(=O)N[C@@H](CC(C)C)C(=O)N[C@@H](C(C)C)C(=O)N[C@@H](CS[C@H]2C)C(=O)N[C@@H](C)C(=O)N[C@H](C(=O)NCCCCCCCN)CS[C@H]1C` (some centres unmarked) [Example 1, Deoxyactagardine B (7-amino-1-heptylamide monocarboxamide)], for which the MIC is 0.5, 0.5 μg/ml and 1, 1 μg/ml and 1 μg/ml and 0.5 μg/ml in series [1] (C. diff strain 027Can, listed as Eg 1); 1, 1 μg/ml in series [1] (C. diff strain 027SM); 0.5, 0.5 μg/ml and 0.5 μg/ml and 1 μg/ml and 1, 1 μg/ml in series [1] (C. diff strain 630, listed as Eg 1); 1, 1 μg/ml and 0.5 μg/ml and 1 μg/ml in series [1] (C. diff strain 19126, listed as Eg 1); 1, 1 μg/ml and 1 μg/ml and 0.5 μg/ml in series [1] (C. diff strain 37779, listed as Eg 1); 1, 1 μg/ml in series [1] (C. diff strain B32). The MIC was 1 µg/mL and 2 µg/mL in series [1] (C. diff strain E16, listed as Eg 1); 1, 1 μg/ml in series [1] (C. diff strain E101); 1, 1 μg/ml in series [1] (C. diff strain P24); 2 µg/mL and 1 µg/mL in series [1] (C. diff strain P62, listed as Eg 1). In addition, in series [1] (against many common strains of C. difficile), the “activity (MIC)” value is at most 1 µg/mL. The “stability in SIF” value in series [2] was “essentially stable”. Moreover, the survival result with C. difficile strain 4013 is listed as “survived for the duration of the entire 5-day dosing period”. Also, the necropsy entry in series [3] (setting [5]) and in series [3] (setting [6]) was “no organ damage” each time. Moreover, the toxicological effects result in series [3] (setting [5]) and in series [3] (setting [6]) was “No significant toxicological effects” in each case. In series [4], the tolerability result is reported as “tolerated without obvious signs of toxicity”.
Consider “Deoxyactagardine B (3-amino-1-propylamide monocarboxamide) [Example 5]”, for which the minimum inhibitory concentration (MIC) is 2, 2 μg/ml in series [1] (C. diff strain 027SM); 1, 1 μg/ml and 2, 2 μg/ml in series [1] (C. diff strain 630, listed as Eg 5); 2, 2 μg/ml and 1, 1 μg/ml in series [1] (C. diff strain 19126, listed as Eg 5); 1, 1 μg/ml and 2, 2 μg/ml in series [1] (C. diff strain 37779, listed as Eg 5); 2, 2 μg/ml in series [1] (C. diff strain B32); 1 µg/mL and 2 µg/mL in series [1] (C. diff strain E16, listed as Eg 5). Also, the MIC in series [1] (C. diff strain E101) is 2, 2 μg/ml; in series [1] (C. diff strain P24) it was 2, 2 μg/ml; in series [1] (C. diff strain P62) it was 2, 2 μg/ml.

The values are drawn from patent US8741945B2, “Compounds” (Novacta Biosystems Limited, priority 2009, dated 2014).
